Laboratory results as given in US9073916B2, “Prodrug forms of kinase inhibitors and their use in therapy” (AUCKLAND UNISERVICES LIMITED, priority 2009, dated 2015).
Structures can show the parent of a compound that is named as a salt. Where two headings read alike, the source gives them in different places.

Legend:
[1] = test system: SKBR3 cells; assay: Cellular growth inhibition (sulforhodamine B); type: cell-based, Human; conditions: Table 3; for IC50: Homo sapiens, SK-BR-3
[2] = test system: SW620 cells; assay: Cellular growth inhibition (sulforhodamine B); type: cell-based, Human; conditions: Table 3; for IC50: Homo sapiens, SW-620
[3] = test system: A431 cells; assay: Cellular growth inhibition (sulforhodamine B); conditions: for A431 HCR (Hypoxic Cytotoxicity Ratio): Table 3
[4] = target: erbB1 (Homo sapiens, UniProt P00533); assay: Inhibition of erbB1 autophosphorylation in EGF-stimulated intact A431 cells (Western blot)
[5] = test system: H1975 cells; assay: Cellular growth inhibition (sulforhodamine B); type: cell-based, Human
[6] = test system: HT29 cells; assay: Cellular growth inhibition (sulforhodamine B); type: cell-based, Human; conditions: Table 7
[7] = Steady state radiolytic reduction by the CO2.− radical with HPLC-MS; type: physicochemical; conditions: for Detection of MNA (methyl nitroaromatic) / release of effector following 1-electron reduction: HPLC-MS; for % Loss of prodrug: HPLC-MS at 0.95 reducing equivalents; for release of effector following 1-electron reduction: steady state radiolysis
[8] = Pulse radiolysis (E(1) and fragmentation rate); type: physicochemical; conditions: for kfrag. (fragmentation rate constant upon 1-electron reduction): benzyl-type radical formation; for E (1)/V (one-electron reduction potential): determined against methylviologen
Procedure: (§1) Pulse radiolysis was used to monitor the 1-electron reduction and stability of the compounds in real time. A linear accelerator delivering short pulses of high energy electrons (2-3 Gy in 200 ns of 4 MeV) equipped with a fast spectophotometric detection system was used. (Anderson et al, J. Phys. Chem. A, 101, 9704-9709, 1997). […] The rate of fragmentation was determined by analysing kinetic transients at wavelengths corresponding to the formation of the benzyl-type radical of the trigger moiety. (Bays et al, J. Am. Chem. Soc., 105, 320-324, 1983; Anderson et al, J. Phys. Chem. A, 101, 9704-9709, 1997).
The pulse radiolysis method, for example, measures the equilibrium constant between the radical anions of the prodrugs, formed upon their 1-electron reduction, and reference standards such as viologen and quinone compounds, from which data the E(1) values of the compounds can be calculated. (Meisel and Czapski. J. Phys. Chem., 1975, 79, 1503-1509.) The E(1) values of prodrugs 17-22, 140-145 were measured by the pulse radiolysis method and determined to range between −0.493V and −0.388V (Table 4).
The rate constants for fragmentation, kfrag, of the 1-electron reduced prodrugs can be measured using pulse radiolysis to observe the time-resolved formation of the absorption spectrum of the benzyl-type radical produced upon fragmentation of the radical anion. (Anderson et al, J. Phys. Chem. A, 1997, 101, 9704-9709.) The kfrag values of prodrugs 19, 20, 140, 141 and 143-145 were measured by pulse radiolysis and are presented in Table 4.
as §1, with “one-electron” for “1-electron”, “prodrug 42” for “the compounds”, “used.” for “used. (Anderson et al, J. Phys. Chem. A, 101, 9704-9709, 1997).”, “1997.)” for “1997).”

[9] = test system: SKOV3 cells; assay: Cellular growth inhibition (sulforhodamine B); type: cell-based, Human; conditions: Table 9; for IC50: Homo sapiens, SK-OV-3
[10] = 24 hour exposure entirely oxic, read-out: Cellular Growth Inhibition IC50 SKBR3 Oxic
[11] = first 4 hours anoxic, read-out: Cellular Growth Inhibition IC50 SKBR3 Anoxic
[12] = 24 hour exposure entirely oxic, read-out: Cellular Growth Inhibition IC50 SW620 Oxic
[13] = first 4 hours anoxic, read-out: Cellular Growth Inhibition IC50 SW620 Anoxic
[14] = Homo sapiens, A-431, 24 h, read-out: Cellular Growth Inhibition IC50 A431 Oxic
[15] = Homo sapiens, A-431, read-out: Cellular Growth Inhibition IC50 A431 Anoxic
[16] = Table 7, 24 hour exposure oxic, read-out: Cellular Growth Inhibition IC50 H1975 Oxic
[17] = Table 7, initial 4 hours anoxic, read-out: Cellular Growth Inhibition IC50 H1975 Anoxic
[18] = 24 hour exposure oxic, read-out: Cellular Growth Inhibition IC50 HT29 Oxic
[19] = initial 4 hours anoxic, read-out: Cellular Growth Inhibition IC50 HT29 Anoxic
[20] = read-out: Cellular Growth Inhibition IC50 A431 Anoxic, Table 7, initial 4 hours anoxic
[21] = read-out: Cellular Growth Inhibition IC50 A431 Oxic, Table 7, 24 hour exposure oxic

Sequence of erbB1 (P00533 25-1210): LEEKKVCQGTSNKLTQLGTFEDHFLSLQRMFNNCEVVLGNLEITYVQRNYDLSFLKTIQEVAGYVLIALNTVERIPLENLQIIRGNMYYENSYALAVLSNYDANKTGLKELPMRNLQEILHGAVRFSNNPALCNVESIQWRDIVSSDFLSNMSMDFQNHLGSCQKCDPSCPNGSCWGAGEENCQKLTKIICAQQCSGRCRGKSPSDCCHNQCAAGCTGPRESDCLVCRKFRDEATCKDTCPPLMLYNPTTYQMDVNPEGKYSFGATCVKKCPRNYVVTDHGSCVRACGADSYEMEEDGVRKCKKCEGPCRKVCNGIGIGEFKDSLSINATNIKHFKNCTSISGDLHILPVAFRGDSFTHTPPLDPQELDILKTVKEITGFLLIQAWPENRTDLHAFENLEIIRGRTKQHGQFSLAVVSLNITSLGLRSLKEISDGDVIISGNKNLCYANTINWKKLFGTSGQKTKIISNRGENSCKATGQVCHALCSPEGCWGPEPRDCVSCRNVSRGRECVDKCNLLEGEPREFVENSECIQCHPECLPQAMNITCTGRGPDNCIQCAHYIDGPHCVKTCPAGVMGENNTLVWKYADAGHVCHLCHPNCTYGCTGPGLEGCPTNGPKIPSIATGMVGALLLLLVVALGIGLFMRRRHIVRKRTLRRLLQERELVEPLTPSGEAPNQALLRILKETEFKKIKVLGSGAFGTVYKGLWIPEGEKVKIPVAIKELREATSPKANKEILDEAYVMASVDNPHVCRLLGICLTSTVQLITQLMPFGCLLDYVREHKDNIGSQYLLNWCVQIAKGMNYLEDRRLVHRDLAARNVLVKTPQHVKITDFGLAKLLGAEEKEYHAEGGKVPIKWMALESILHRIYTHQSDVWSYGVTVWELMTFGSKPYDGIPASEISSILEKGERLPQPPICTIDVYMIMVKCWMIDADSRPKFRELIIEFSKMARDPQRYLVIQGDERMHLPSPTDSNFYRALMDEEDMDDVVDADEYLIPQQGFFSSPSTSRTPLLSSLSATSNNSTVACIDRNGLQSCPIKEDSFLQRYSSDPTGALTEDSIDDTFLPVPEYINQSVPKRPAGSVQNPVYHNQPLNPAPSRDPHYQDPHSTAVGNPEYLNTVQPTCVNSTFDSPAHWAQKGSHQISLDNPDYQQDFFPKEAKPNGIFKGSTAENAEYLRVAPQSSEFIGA

Compound	melting point	IC50 [5, 16]	IC50 [5, 17]	IC50 [6, 18]	IC50 [6, 19]	IC50 [3, 20]	IC50 [3, 21]	Detection of MNA (methyl nitroaromatic) [7]	% Loss of prodrug [7]	E (1)/V (one-electron reduction potential) [8]	H1975 HCR ([5]; Table 7)	A431 HCR ([3]; Table 7)	kfrag. (fragmentation rate constant upon 1-electron reduction) [8]	also measured
C[N+](C)(C/C=C/C(=O)Nc1ccc2ncnc(Nc3cccc(Br)c3)c2c1)Cc1ccccc1[N+](=O)[O-] (as salt: bromide) [Compound 18, (2E)-4-{[4-(3-bromoanilino)-6-quinazolinyl]amino}-N,N-dimethyl-N-(2-nitrobenzyl)-4-oxo-2-buten-1-ammonium bromide]	166 to 169 °C													
O=C(/C=C/CN1CCCCC1)Nc1ccc2ncnc(Nc3cccc(Br)c3)c2c1 [Compound 12, (E)-N-(4-(3-bromophenylamino)quinazolin-6-yl)-4-(piperidin-1-yl)but-2-enamide, reference compound]														IC50 [1, 10]: 44 nM; IC50 [1, 11]: 28 nM; SKBR3 HCR [1]: 1.6 fold; IC50 [2, 12]: 3810 nM; IC50 [2, 13]: 4010 nM; SW620 HCR [2]: 1.0 fold; IC50 [3, 14]: 10 nM; IC50 [3, 15]: 23 nM; A431 HCR (Hypoxic Cytotoxicity Ratio) [3]: 0.4 fold; IC50 [4]: 45 nM
O=C(/C=C/CN1CCOCC1)Nc1ccc2ncnc(Nc3cccc(Br)c3)c2c1 [Compound 13, (E)-N-(4-(3-bromophenylamino)quinazolin-6-yl)-4-morpholinobut-2-enamide, reference compound]														IC50 [1, 10]: 1040 nM; IC50 [1, 11]: 664 nM; SKBR3 HCR [1]: 1.6 fold; IC50 [2, 12]: 27400 nM; IC50 [2, 13]: 29000 nM; SW620 HCR [2]: 1.5 fold; IC50 [3, 14]: 430 nM; IC50 [3, 15]: 784 nM; A431 HCR (Hypoxic Cytotoxicity Ratio) [3]: 0.5 fold; IC50 [4]: 16 nM
Cn1cnc([N+](=O)[O-])c1C[N+](C)(C)C/C=C/C(=O)Nc1cc2c(Nc3ccc(F)c(Cl)c3)ncnc2cc1O[C@H]1CCOC1.O=C([O-])C(F)(F)F [Compound 82, (2E)-4-({4-(3-chloro-4-fluoroanilino)-7-[(3S)-tetrahydro-3-furanyloxy]-6-quinazolinyl}amino)-N,N-dimethyl-N-[(1-methyl-4-nitro-1H-imidazol-5-yl)methyl]-4-oxo-2-buten-1-ammonium trifluoroacetate]		64500 nM	2300 nM	> 100000 nM	> 30000 nM	59 nM	3600 nM				28 fold	62 fold		
CC[N+](CC)(CCNC(=O)c1c(C)[nH]c(/C=C2\C(=O)Nc3ccc(F)cc32)c1C)Cc1c([N+](=O)[O-])ncn1C.O=C([O-])C(F)(F)F [Compound 144, N,N-diethyl-2-[({5-[(Z)-(5-fluoro-2-oxo-1,2-dihydro-3H-indol-3-ylidene)methyl]-2,4-dimethyl-1H-pyrrol-3-yl}carbonyl)amino]-N-[(1-methyl-4-nitro-1H-imidazol-5-yl)methyl]ethanammonium trifluoroacetate]		203000 nM	57200 nM	298000 nM	10700 nM	24100 nM	146000 nM	Yes	68%	−0.449 V	3 fold	7 fold	470 ± 20 s⁻¹	HT29 HCR [6]: 31 fold; release of effector following 1-electron reduction [7]: released their respective effector compounds
CC[N+](CC)(CCNC(=O)c1c(C)[nH]c(/C=C2\C(=O)Nc3ccc(F)cc32)c1C)Cc1c([N+](=O)[O-])nc(C)n1C.[Br-] [Compound 145, N-[(1,2-dimethyl-4-nitro-1H-imidazol-5-yl)methyl]-N,N-diethyl-2-[({5-[(Z)-(5-fluoro-2-oxo-1,2-dihydro-3H-indol-3-ylidene)methyl]2,4-dimethyl-1H-pyrrol-3-yl}carbonyl)amino]ethanammonium bromide]								Yes	87%	−0.456 V			1050 ± 40 s⁻¹	
CN(C)C/C=C/C(=O)Nc1cc2c(Nc3ccc(F)c(C(F)(F)F)c3)ncnc2cn1 [Compound 170]														IC50 ([5]; Homo sapiens, NCI-H1975, Table 9, 24 hour exposure oxic, read-out: Cellular Growth Inhibition IC50 H1975 Oxic): 1700 nM; IC50 ([5]; Homo sapiens, NCI-H1975, Table 9, first 4 hours anoxic, read-out: Cellular Growth Inhibition IC50 H1975 Anoxic): 1380 nM; H1975 HCR ([5]; Table 9): 1.2 fold; IC50 ([9]; 24 hour exposure oxic, read-out: Cellular Growth Inhibition IC50 SKOV3 Oxic): 990 nM; IC50 ([9]; first 4 hours anoxic, read-out: Cellular Growth Inhibition IC50 SKOV3 Anoxic): 1800 nM; SKOV3 HCR [9]: 0.7 fold; IC50 ([3]; Homo sapiens, A-431, 4 h, read-out: Cellular Growth Inhibition IC50 A431 Anoxic): 250 nM; IC50 [3, 14]: 240 nM; A431 HCR ([3]; Table 9): 1.5 fold; IC50 [4]: 8 nM

The next lines start with results.

melting point	IC50 [5, 16]	IC50 [5, 17]	IC50 [6, 18]	IC50 [6, 19]	IC50 [3, 20]	IC50 [3, 21]	Detection of MNA (methyl nitroaromatic) [7]	% Loss of prodrug [7]	E (1)/V (one-electron reduction potential) [8]	Compound	H1975 HCR ([5]; Table 7)	A431 HCR ([3]; Table 7)	kfrag. (fragmentation rate constant upon 1-electron reduction) [8]	also measured
125 to 129 °C										Cn1cnc([N+](=O)[O-])c1C[N+]1(C/C=C/C(=O)Nc2ccc3ncnc(Nc4cccc(Br)c4)c3c2)CCOCC1.O=C[O-]				
178 to 181 °C										C[N+](C)(C/C=C/C(=O)Nc1ccc2ncnc(Nc3cccc(Br)c3)c2c1)Cc1ccc([N+](=O)[O-])cc1 (as salt: bromide) [Compound 17, (2E)-4-{[4-(3-bromoanilino)-6-quinazolinyl]amino}-N,N-dimethyl-N-(4-nitrobenzyl)-4-oxo-2-buten-1-ammonium bromide]				
177 °C (dec.)										Cn1cnc([N+](=O)[O-])c1C[N+](C)(C)CCCC(=O)Nc1ccc2ncnc(Nc3cccc(Br)c3)c2c1 (as salt: bromide) [Compound 27, 4-{([4-(3-bromoanilino)-6-quinazolinyl]amino}-N,N-dimethyl-N-[(1-methyl-4-nitro-1H-imidazol-5-yl)methyl]-4-oxo-1-butanaminium bromide]				
	4700 nM	430 nM	4600 nM	310 nM	510 nM	7900 nM	Yes	92%	−0.429 V	CC[N+](CC)(CCOc1ccc(Nc2ncc3cc(-c4c(Cl)cccc4Cl)c(=O)n(C)c3n2)cc1)Cc1c([N+](=O)[O-])ncn1C.[Br-] [Compound 140, 2-(4-{[6-(2,6-dichlorophenyl)-8-methyl-7-oxo-7,8-dihydropyrido[2,3-d]pyrimidin-2-yl]amino}phenoxy)-N,N-diethyl-N-[(1-methyl-4-nitro-1H-imidazol-5-yl)methyl]ethanammonium bromide]	13 fold	15 fold	310 ± 20 s⁻¹	HT29 HCR [6]: 15 fold; release of effector following 1-electron reduction [7]: released their respective effector compounds
	6100 nM	370 nM	5600 nM	320 nM	440 nM	12300 nM	Yes	83%	−0.456 V	CC[N+](CC)(CCOc1ccc(Nc2ncc3cc(-c4c(Cl)cccc4Cl)c(=O)n(C)c3n2)cc1)Cc1c([N+](=O)[O-])nc(C)n1C.[Br-] [Compound 141, 2-(4-{[6-(2,6-dichlorophenyl)-8-methyl-7-oxo-7,8-dihydropyrido[2,3-d]pyrimidin-2-yl]amino}phenoxy)-N-[(1,2-dimethyl-4-nitro-1H-imidazol-5-yl)methyl]N,N-diethylethanammonium bromide]	18 fold	30 fold	1100 ± 100 s⁻¹	HT29 HCR [6]: 18 fold
